ChEMBL document CHEMBL3616425, “Factors influencing the cytotoxicity of α-methylene-γ-hydroxy esters against pancreatic cancer” (2015)

Assays:
Type in all cases: functional
[1] = Cytotoxicity against human BxPC3 cells assessed as cell growth at 10 uM after 72 hrs by Cell Titer 96 cell proliferation assay relative to control; conditions: BXPC-3, 72 h, read-out: Activity
[2] = Cytotoxicity against human PANC1 cells assessed as cell growth at 10 uM after 72 hrs by Cell Titer 96 cell proliferation assay relative to control; conditions: PANC-1, 72 h, read-out: Activity
[3] = Cytotoxicity against human MIAPaCa2 cells assessed as cell growth at 10 uM after 72 hrs by Cell Titer 96 cell proliferation assay relative to control; conditions: MIA PaCa-2, 72 h, read-out: Activity

Work on `C=C(C(=O)OC)C(O)c1ccc(F)cc1` (stereo not given) yielded a growth at 10 µM [1] of 137%, a growth at 10 µM [2] of 136% and a growth at 10 µM [3] of 118%.

`C=C(C(=O)OC)C(O)c1ccc(C(F)(F)F)cc1` (stereo not given) showed a growth at 10 µM [1] of 69%, a growth at 10 µM [2] of 93% and a growth at 10 µM [3] of 27%.

With `C=C(C(=O)OC)C(O)c1ccccc1` (stereo not given) the growth at 10 µM [1] was 129%, the growth at 10 µM [2] was 118% and the growth at 10 µM [3] was 119%.

Molecule `C=C(C(=O)OC)C(O)c1ccc([N+](=O)[O-])cc1` (stereo not given) has a growth at 10 µM [1] of 123%, a growth at 10 µM [2] of 138% and a growth at 10 µM [3] of 98%.

For `C=C(C(=O)OC)C(C)CO` (stereo not given), the growth at 10 µM [1] was 126%, the growth at 10 µM [2] was 120% and the growth at 10 µM [3] was 124%.

Molecule `C=C(C(=O)OC)C(CO)C1CCCCC1` (stereo not given) has a growth at 10 µM [1] of 86%, a growth at 10 µM [2] of 164% and a growth at 10 µM [3] of 98%.

In the case of `C=C(C(=O)OC)C(CO)c1ccccc1` (stereo not given), the growth at 10 µM [1] is reported as 60%, the growth at 10 µM [2] is reported as 102% and the growth at 10 µM [3] is reported as 29%.

`C=C(CC(O)c1ccccc1)C(=O)OC` (stereo not given) gave a growth at 10 µM [1] of 1%, a growth at 10 µM [2] of 67% and a growth at 10 µM [3] of 14%.

Work on `C=C(C(=O)OCC)C(O)c1ccc(OC)cc1` (stereo not given) yielded a growth at 10 µM [1] of 130%, a growth at 10 µM [2] of 108% and a growth at 10 µM [3] of 110%.

`C=C(C(=O)OC)C(O)c1ccc(C#N)cc1` (stereo not given) showed a growth at 10 µM [1] of 126%, a growth at 10 µM [2] of 131% and a growth at 10 µM [3] of 94%.

Molecule `C=C(C(=O)OC)C(O)c1cccc(F)c1` (stereo not given) has a growth at 10 µM [1] of 134%, a growth at 10 µM [2] of 166% and a growth at 10 µM [3] of 129%.

For `C=C(C(=O)OC)C(O)c1ccccc1F` (stereo not given), the growth at 10 µM [1] was 137%, the growth at 10 µM [2] was 157% and the growth at 10 µM [3] was 128%.

Molecule `C=C(C(=O)OC)C(O)c1c(F)c(F)c(F)c(F)c1F` (stereo not given) has a growth at 10 µM [1] of 117%, a growth at 10 µM [2] of 147% and a growth at 10 µM [3] of 111%.

`C=C(C(=O)OC)C(O)c1ccccc1C(F)(F)F` (stereo not given) showed a growth at 10 µM [1] of 142%, a growth at 10 µM [2] of 169% and a growth at 10 µM [3] of 127%.

`C=C1C(=O)OC1c1ccc(C#N)cc1` (stereo not given) gave a growth at 10 µM [1] of 116%, a growth at 10 µM [2] of 102% and a growth at 10 µM [3] of 99%.

For `C=C1C(=O)OC1c1ccc([N+](=O)[O-])cc1` (stereo not given), the growth at 10 µM [1] was 133%, the growth at 10 µM [2] was 136% and the growth at 10 µM [3] was 123%.

In the case of `C=C(C(=O)O)C(O)c1ccccc1` (stereo not given), the growth at 10 µM [1] is reported as 110%, the growth at 10 µM [2] is reported as 127% and the growth at 10 µM [3] is reported as 94%.

`C=C(C(=O)O)C(O)c1ccc(OC)cc1` (stereo not given) gave a growth at 10 µM [1] of 110%, a growth at 10 µM [2] of 125% and a growth at 10 µM [3] of 106%.

With `C=C(C(=O)O)C(O)c1ccc(C#N)cc1` (stereo not given) the growth at 10 µM [1] was 114%, the growth at 10 µM [2] was 108% and the growth at 10 µM [3] was 92%.

Work on `C=C(C(=O)O)C(O)c1ccc([N+](=O)[O-])cc1` (stereo not given) yielded a growth at 10 µM [1] of 124%, a growth at 10 µM [2] of 134% and a growth at 10 µM [3] of 130%.

With `C=C(C(=O)O)C(O)c1ccc(C(F)(F)F)cc1` (stereo not given) the growth at 10 µM [1] was 121%, the growth at 10 µM [2] was 129% and the growth at 10 µM [3] was 119%.

Work on `C=C1C(=O)O[C@@H]2C3O[C@]3(C)CC/C=C(\C)CC[C@@H]12` (stereo not given in full) yielded a growth at 10 µM [1] of 12%, a growth at 10 µM [2] of 22% and a growth at 10 µM [3] of 11%.

`C=C1C(=O)O[C@H](c2ccccc2)[C@@H]1c1ccccc1` (relative stereo) gave a growth at 10 µM [1] of 3%, a growth at 10 µM [2] of 12% and a growth at 10 µM [3] of 9%.

Molecule `C=C(C(=O)OC)[C@@H](c1ccccc1)[C@H](O)c1ccccc1` (relative stereo) has a growth at 10 µM [1] of 2%, a growth at 10 µM [2] of 14% and a growth at 10 µM [3] of 9%.

With `C=C(C(=O)OC)[C@@H](C)[C@@H](C)O` (relative stereo) the growth at 10 µM [1] was 122%, the growth at 10 µM [2] was 110% and the growth at 10 µM [3] was 147%.

With `C=C(C(=O)OC)[C@@H](C1CCCCC1)[C@@H](C)O` (relative stereo) the growth at 10 µM [1] was 120%, the growth at 10 µM [2] was 145% and the growth at 10 µM [3] was 77%.

`C=C(C(=O)OC)[C@@H](C)[C@H](O)c1ccccc1` (relative stereo) gave a growth at 10 µM [1] of 49%, a growth at 10 µM [2] of 91% and a growth at 10 µM [3] of 32%.

In the case of `C=C(C(=O)OC)[C@@H](CCC)[C@H](O)c1ccccc1` (relative stereo), the growth at 10 µM [1] is reported as 38%, the growth at 10 µM [2] is reported as 104% and the growth at 10 µM [3] is reported as 32%.

With `C=C(C(=O)OC)[C@@H](c1ccccc1)[C@@H](C)O` (relative stereo) the growth at 10 µM [1] was 27%, the growth at 10 µM [2] was 96% and the growth at 10 µM [3] was 24%.

Work on `C=C(C(=O)OC)[C@@H](c1ccccc1)[C@H](O)C1CCCCC1` (relative stereo) yielded a growth at 10 µM [1] of 23%, a growth at 10 µM [2] of 83% and a growth at 10 µM [3] of 29%.

In the case of `C=C(C(=O)OC)[C@@H](c1ccccc1)[C@H](O)CCC` (relative stereo), the growth at 10 µM [1] is reported as 8%, the growth at 10 µM [2] is reported as 33% and the growth at 10 µM [3] is reported as 16%.

`C=C(C(=O)OC)[C@@H](c1ccccc1)[C@H](O)Cc1ccccc1` (relative stereo) gave a growth at 10 µM [1] of 6%, a growth at 10 µM [2] of 14% and a growth at 10 µM [3] of 16%.

Molecule `C=C(C(=O)OC)[C@@H](c1ccccc1)[C@H](OC)c1ccccc1` (relative stereo) has a growth at 10 µM [1] of 94%, a growth at 10 µM [2] of 123% and a growth at 10 µM [3] of 102%.

Molecule `C=C(C(=O)OC)[C@@H](c1ccccc1)[C@H](O[Si](C)(C)C(C)(C)C)c1ccccc1` (relative stereo) has a growth at 10 µM [1] of 117%, a growth at 10 µM [2] of 135% and a growth at 10 µM [3] of 110%.

`C=C(C(=O)OCC)[C@@H](c1ccccc1)[C@H](O)c1ccccc1` (relative stereo) showed a growth at 10 µM [1] of 3%, a growth at 10 µM [2] of 5% and a growth at 10 µM [3] of 13%.

In the case of `C=C(C(=O)OCc1ccccc1)[C@@H](c1ccccc1)[C@H](O)c1ccccc1` (relative stereo), the growth at 10 µM [1] is reported as 2%, the growth at 10 µM [2] is reported as 6% and the growth at 10 µM [3] is reported as 12%.

Molecule `C=C(C(=O)Oc1ccccc1)[C@@H](c1ccccc1)[C@H](O)c1ccccc1` (relative stereo) has a growth at 10 µM [1] of 1%, a growth at 10 µM [2] of 9% and a growth at 10 µM [3] of 8%.

Molecule `C=C(C(C)=O)[C@@H](c1ccccc1)[C@H](O)c1ccccc1` (relative stereo) has a growth at 10 µM [1] of 104%, a growth at 10 µM [2] of 105% and a growth at 10 µM [3] of 53%.

With `C=C(C[C@@H](c1ccccc1)[C@H](O)c1ccccc1)C(=O)OC` (relative stereo) the growth at 10 µM [1] was 129%, the growth at 10 µM [2] was 124% and the growth at 10 µM [3] was 59%.

In the case of `O=C1O[C@H](c2ccccc2)[C@H](c2ccccc2)/C1=C\c1ccccc1` (relative stereo), the growth at 10 µM [1] is reported as 117%, the growth at 10 µM [2] is reported as 105% and the growth at 10 µM [3] is reported as 87%.
